Data as given in publication PMC7595212, “Functional interaction between Ghrelin and GLP-1 regulates feeding through the vagal afferent system” (Scientific Reports, 2020).

Assays:
[1] = tested on: NG neurons; test: Calcium response in single neurons isolated from NG (Fura-2); type: cell-based, mouse
Protocol: Bilateral NGs resected from mice were immersed in hibernateA media (BrainBits). Each ganglion was cut into five pieces, placed in HibernateA minus Ca^2+ media (BrainBits) containing 1 mg/ml collagenase/dispase (Roche Diagnostics) and incubated for 90 min at 37 °C. Neurons were dispersed by gentle titration through pipettes and they were washed three times with fresh NbActive4 media (BrainBits) and plated onto poly-D-lysine/laminin (BD Bioscience)-coated coverslips, followed by incubation (5% CO2 in air at 37 °C) for 24 h. Cultures were rinsed in 10 mM phosphate buffered saline (PBS) and fixed with 4% paraformaldehyde (PFA) in phosphate buffer (PB). Ganglion neurons were incubated with the first primary antibodies; anti-GLP-1R or anti-GHSR at 4 °C overnight, and then with the second primary antibodies; anti-GHSR or anti-Pan Neuronal Marker (Supplementary Table S1) at 4 °C overnight. They were then reacted with corresponding Alexa Fluor 488- or 594-conjugated secondary IgG (Supplementary Table S1) at RT for 1 h. Neurons were observed under a fluorescence microscope (Olympus).
Ca^2+ imaging was performed under continuous perfusion of NG neurons with Krebs–Ringer-Henseleit buffer (Composition in mmol L^−1: NaCl 119, KCl 4.74, CaCl2 2.54, MgCl2 1.19, KH2PO4 1.19, NaHCO3 25, HEPES 10, pH 7.4) at a flow rate of 600 μl/min at 37 °C. NG neurons were loaded with 1 µM Fura-2 acetoxymethyl ester (Dojindo Labs) in NbActive4 media at 37 °C for 30 min. For Ca^2+ measurements in an integrated fluorescence microscope (Keyence BZ-X700), images were captured at 10-s intervals; 340- and 380-nm excitation filters were used for Fura-2-AM dual-wavelength excitation ratio imaging. NG neurons were stimulated with 10 nM either ghrelin or GLP-1, and 10 min later stimulated with the other peptide. At the end of experiments, cells were exposed to 100 mM KCl (Nacalai Tesque) for 2 min. […] All data were expressed as percent changes from the average of the 340/380 fluorescence ratio in response to ghrelin or GLP-1.
All neurons collected in retrograde tracing studies and used to assess calcium response and patch-clamp recording were picked up by the UnipicK + system (NeuroInDx) immediately after each measurement. RNA was isolated from single neurons with PicoPure RNA Isolation Kit (Applied Biosystems). qRT-PCR (primer sets, Supplementary Table S2) was conducted with SYBR Premix Ex Taq (2 ×) (Takara Bio Inc.) on a Thermal Cycler Dice Real-Time System II (Takara Bio Inc.). In the retrograde tracer studies, percentage of stomach-innervating NG neurons expressing Ghsr or Glp1r were analysed. In the patch-clamp recording, only Ghsr^+ Glp1r^+ neuron cells were used for the final analysis.

[2] = tested on: rats; test: Feeding experiments in rats (1-h food intake); type: in vivo, rat; conditions: GLP-1 3 nmol i.v.
Protocol: First, rats fasted for 8 h (02:00–10:00) received an i.v. injection of human GLP-1 (3 nmol/100 µl saline, CS Bio) or saline at 10:00, then they were administered human ghrelin (1.5 nmol/100 µl saline, Peptide Institute) or saline injection at 10:30. Food intake was determined from 10:30 to 11:30. Secondly, rats fed ad libitum received an i.v. ghrelin (1.5 nmol/100 µl) or saline injection at 10:00 or 19:30, then they were administered GLP-1 (3 nmol/100 µl) or saline injection at 10:30 or 20:00. Food intake was measured from 10:30 to 11:30 or 20:00 to 21:00. Thirdly, mice fasted for 8 h (02:00–10:00) received an i.p. injection of ghrelin (1.5 nmol/100 µl saline) or saline at 10:00, then they were administered human GLP-1 (3 nmol/100 µl saline) or saline at 10:30 and 1 h food intake (10:30–11:30) was measured. Fourthly, Ghsr^−/− and their wild-type mice fasted for 12 h (22:00–10:00) were administered ghrelin (1.5 nmol/50 µl saline, i.p.) at 10:00, then they were administered GLP-1 (3 nmol/50 µl saline, i.p.) or saline injection at 10:30, and food intake was measured from 10:30 to 11:30. Finally, Glp1r ^−/− and their wild-type mice were administered GLP-1 (3 nmol/50 µl, i.p.) or saline at 10:00, subsequently given a ghrelin (1.5 nmol/50 µl, i.p.) or saline injection at 10:30, food intake was measured from 10:30 to 11:30. […]

[3] = tested on: gastric vagal afferent; test: Multi-unit nerve discharge of the gastric vagal afferent; type: in vivo, rat; conditions: anaesthetised rats, i.v., n = 3
Protocol: Multi-unit neural discharge in gastric vagal afferent fibres was recorded extracellularly. Rats were anesthetised by an i.p. injection of urethane (1 g/kg) (Sigma-Aldrich). The electrophysiological study was performed entirely under anaesthetisation as described previously. After the gastric branch of the vagal nerve was visualised, we placed filaments isolated from the peripheral cut end of the ventral branch for the recording of afferent nerve activity via a pair of silver wire electrodes connected through an alternating current-coupled differential amplifier (ER-1; Cygnus Technology) to PowerLab (AD Instruments). The nerve activities were recorded and analysed using LabChart v8 software (AD Instruments). […] After the first administration, nerve discharges from the multi-unit afferents were analysed for 60 min.

[4] = tested on: NG neurons; test: Whole-cell voltage-clamp (patch-clamp) of NG neurons; type: cell-based, mouse; conditions: whole-cell voltage clamp -80 to 40 mV, 10 nM peptide, Ghsr- and Glp1r-expressing NG neurons, n = 10
Protocol: NG neurons were perfused in the bath solution (Composition in mmol L^−1: NaCl 126.2, KCl 3.1, MgCl2 2, CaCl2 2, HEPES 10, glucose 10; pH 7.39, osmolarity 320 mOsm) with 10 nM ghrelin or 10 nM GLP-1. Whole-cell recordings were performed using patch pipettes of 3.5–5 MΩ resistance backfilled with a solution (Composition in mmol L^−1: K gluconate 125, KCl 8, MgCl2 4, HEPES 10, ATP 2, GTP 0.4, Na2-creatine phosphate 5; pH 7.23, osmolarity 300 mOsm). After obtaining a giga-seal, membrane access resistance was monitored for 5–10 min until it became stable at 10 MΩ or less. Data were acquired from isolated vagal sensory neurons of mice in Axopatch 1D amplifier (Molecular Devices) filtered at 1 kHz. Signals were digitised in analogue-to-digital converter (Axon Digidata 1322A; Molecular Devices), and analysed on a computer running pCLAMP 10 software (Molecular Devices).
All neurons collected in retrograde tracing studies and used to assess calcium response and patch-clamp recording were picked up by the UnipicK + system (NeuroInDx) immediately after each measurement. […] In the retrograde tracer studies, percentage of stomach-innervating NG neurons expressing Ghsr or Glp1r were analysed. […]

[5] = tested on: mice; test: Feeding experiments in mice (1-h food intake); type: in vivo, mouse; conditions: for food intake, GLP-1 preadministration before ghrelin: GLP-1 3 nmol i.p. 30 min before ghrelin 1.5 nmol i.p., n = 8
[6] = Pharmacokinetics analysis: plasma profiles of ghrelin and GLP-1 in rats; conditions: i.v. into femoral vein, peptide administered first (GLP-1 3 nmol, ghrelin 1.5 nmol), GLP-1 by active ELISA, ghrelin by enzyme immunoassay
Protocol: Blood was withdrawn from the right jugular vein at: 1, 2.5, 5, 10, 20, 30, 32.5, 35, 40, 50, and 60 min after the first injection. Blood was collected into tubes containing 1.25 mg EDTA and aprotinin (500 kallikrein-inhibiting units/ml blood) (Wako Pure Chemical Industries), and all samples were centrifuged within 2 h of collection. […] For ghrelin assay, 1 M HCl (100 µl/ml) was added to the plasma. All samples were stored at − 70 °C until analysis.

[7] = tested on: Fos expression in NG, NTS and ARC neurons; test: Fos immunohistochemical staining (NG, NTS, ARC); type: in vivo, mouse; conditions: mice
Protocol: The NG and brain were removed, fixed overnight in a fixative solution containing 4% PFA, cryoprotected in 0.1 M PB containing 20% sucrose and embedded in Tissue-Tek O.C.T. compound. The 10 µm sections were mounted on slides permeabilized with 0.3% triton X-100 in PBS (PBS-T). After permeabilization, antigens were retrieved by heating the sections in an autoclave for 1 h at 70 °C with a Histo VT one (Nakalai Teaque, Kyoto, Japan). All sections were blocked with 5% goat-serum in PBS-T. Three specimens each of NG, NTS and ARC were incubated for 48 h at 4 °C with c-Fos antiserum (Supplementary Table S1), then incubated for 1 h with Alexa Fluor 488- (NTS and ARC) or 594- (NG) conjugated anti-rabbit IgG at room temperature (Supplementary Table S1). To stain nuclei of the neurons, the specimens from NG were incubated with Alexa Fluor 488-conjugated Anti-NeuN IgG (Supplementary Table S1) at RT for 1 h, and the specimens from NTS and ARC were incubated overnight with Alexa Fluor 555-conjugated anti-NeuN IgG (Supplementary Table S1) at 4 °C. Images of immunofluorescence staining were observed using a Nikon C2 + confocal laser scanning microscope (Nikon, Tokyo, Japan). Fos-positive neurons in three specimens from each animal were counted using ImageJ.

## CC[C@H](C)[C@H](NC(=O)[C@H](Cc1ccccc1)NC(=O)[C@H](CCC(=O)O)NC(=O)[C@H](CCCCN)NC(=O)[C@H](C)NC(=O)[C@H](C)NC(=O)[C@H](CCC(N)=O)NC(=O)CNC(=O)[C@H](CCC(=O)O)NC(=O)[C@H](CC(C)C)NC(=O)[C@H](Cc1ccc(O)cc1)NC(=O)[C@H](CO)NC(=O)[C@H](CO)NC(=O)[C@@H](NC(=O)[C@H](CC(=O)O)NC(=O)[C@H](CO)NC(=O)[C@@H](NC(=O)[C@H](Cc1ccccc1)NC(=O)[C@@H](NC(=O)CNC(=O)[C@H](CCC(=O)O)NC(=O)[C@H](C)NC(=O)[C@@H](N)Cc1c[nH]cn1)[C@@H](C)O)[C@@H](C)O)C(C)C)C(=O)N[C@@H](C)C(=O)N[C@@H](Cc1c[nH]c2ccccc12)C(=O)N[C@@H](CC(C)C)C(=O)N[C@H](C(=O)N[C@@H](CCCCN)C(=O)NCC(=O)N[C@@H](CCCNC(=N)N)C(N)=O)C(C)C [GLP-1, glucagon-like peptide 1]
[1]; Glp1r+Ghsr+ neurons, 10 nM GLP-1 10 min after 10 nM ghrelin, n = 10
  calcium response, GLP-1 after ghrelin: failed to evoke calcium response
[1]; Glp1r+Ghsr+ neurons, 10 nM GLP-1 given first, n = 10
  calcium response: evoked calcium response
[1]; Glp1r+Ghsr- neurons, 10 nM GLP-1
  calcium response: evoked calcium response
[1]; Glp1r-Ghsr- neurons, 10 nM GLP-1
  calcium response: not
[2]; 8-h fasted rats, compared with saline, n = 8
  food intake: significantly reduced food intake
[2]; rats fed ad libitum, dark phase (20:00-21:00), n = 6
  food intake: suppressed feeding
[3]; ghrelin 1.5 nmol or GLP-1 1 nmol, peptide given first
  gastric vagal afferent activity: enhanced it
[3]; peptide given 30 min after the other peptide (ghrelin 1.5 nmol, GLP-1 1 nmol)
  gastric vagal afferent activity, second peptide: GLP-1-enhanced activity was not observed
[4]
  current in I/V relationship: generated depolarizing current
[5]; Glp1r-/- mice fed ad libitum
  food intake, GLP-1 preadministration before ghrelin: did not affect ghrelin-induced feeding
[5]; mice, two peptides in a 60-min interval, peptide given 60 min after the first peptide
  feeding effect of the peptide administered second: exhibited its proper effect
[5]; wild-type mice (of Glp1r-/-) fed ad libitum
  food intake, GLP-1 preadministration before ghrelin: abolished ghrelin-induced feeding
[6]
  time at which plasma concentration returned to the base: 30 min
[7]; GLP-1 3 nmol i.p. 30 min before ghrelin 1.5 nmol i.p., n = 4
  ghrelin-induced Fos in the ARC after GLP-1 preadministration: abolished ghrelin-induced Fos in the ARC
[7]; GLP-1 3 nmol i.p. alone, n = 3
  Fos-positive neurons in left NG: 70.5%
  Fos-positive neurons in right NG: 71.0%
[7]; GLP-1 3 nmol i.p. alone, n = 4
  Fos in the NTS: induced Fos in the NTS
